Test results from US20120053200A1, “BACE 2 INHIBITORS” (priority 2010, published 2012).

Target: T1, BACE2 (Rattus norvegicus, UniProt Q6IE75)
T1 construct: endogenous cellular BACE2 in the Ins1e rat cell line; endogenous in cells; host or cells: INS-TMEM27 (INS1e-derived rat beta-cell line with doxycycline-inducible full-length hTMEM27)
T1 sequence (Q6IE75 63-514): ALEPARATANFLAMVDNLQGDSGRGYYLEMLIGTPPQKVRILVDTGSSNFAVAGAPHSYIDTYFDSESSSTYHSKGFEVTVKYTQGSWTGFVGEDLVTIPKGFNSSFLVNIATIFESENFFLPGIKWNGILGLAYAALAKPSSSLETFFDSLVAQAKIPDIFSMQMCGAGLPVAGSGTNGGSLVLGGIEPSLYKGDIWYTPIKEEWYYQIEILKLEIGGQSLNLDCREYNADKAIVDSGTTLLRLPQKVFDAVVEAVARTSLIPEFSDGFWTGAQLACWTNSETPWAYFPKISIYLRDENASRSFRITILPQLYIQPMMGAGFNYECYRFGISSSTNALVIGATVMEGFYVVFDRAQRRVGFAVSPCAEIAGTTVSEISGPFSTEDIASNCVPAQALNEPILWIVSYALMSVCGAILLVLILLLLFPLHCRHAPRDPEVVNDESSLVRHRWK
Experiment: Assay for BACE inhibition by measuring cellular TMEM27 cleavage (INS-TMEM27 cells, ELISA of shed TMEM27)
Format: cell-based
Details: inhibition of human TMEM27 cleavage by endogenous cellular BACE2 in INS1e-derived INS-TMEM27 rat cell line; ELISA of shed TMEM27 in supernatant
Excerpt: Assay for […] Inhibition by Measuring Cellular TMEM27 Cleavage
This assay uses the principle of inhibition of human TMEM27 cleavage by endogenous cellular BACE2 in the Ins1e rat cell line and shedding from the cell surface into the culture medium, followed by detection in an ELISA assay. Inhibition of BACE2 prevents the cleavage and shedding in a dose-dependent manner.
The stable cell line “INS-TMEM27” represents an INS1e-derived cell line with inducible expression (using the TetOn system) of full-length hTMEM27 in a doxycycline-dependent manner. The cells were cultured throughout the experiment in RPMI1640+Glutamax (Invitrogen) Penicillin/Streptomycin, 10% Fetal bovine serum, 100 mM pyruvate, […] beta-mercatptoethanol, 100 micrograms/ml G418 and 100 microgram/ml hygromycin and were grown in adherent culture at 37° C. in a standard CO2 cell culture incubator.
INS-TMEM27 cells were seeded in 96-well plates. After 2 days in culture, BACE2 inhibitor was added in a range of concentrations as required by the assay and after a further two hours, doxycycline was added to a final concentration of 500 ng/ml. The cells were incubated for a further 46 hours and the supernatant harvested for detection of shed TMEM27.
An ELISA assay (using a pair of mouse anti-human-TMEM27 antibodies, raised against the extracellular domain of TMEM27) was used for detection of TMEM27 in the culture medium. An IC50 for BACE2 inhibition was calculated using the ELISA readout for each inhibitor concentration with standard curve-fitting software.
The inhibitory activity, given as an IC50 value, of the compounds of Examples 1 to 32 and 34 to 74 were as follows.

Row | Compound | IC50 [nM]
1 | Cc1cc(C(=O)N[C@@H](Cc2ccccc2)[C@H](O)CNCc2cccc(OC(F)(F)F)c2)cc(C(=O)N2CCCC2c2ccccc2)c1 (stereo partly drawn) [Example 43, N-[(1S,2R)-1-Benzyl-2-hydroxy-3-(3-trifluoromethoxy-benzylamino)-propyl]-3-methyl-5-(2-phenyl-pyrrolidine-1-carbonyl)-benzamide] | 3
2 | Cc1cc(C(=O)N[C@@H](Cc2ccccc2)[C@H](O)CNCc2cccc(OC(F)(F)F)c2)cc(C(=O)N(C)Cc2ccccn2)c1 [Example 44, N-[(1S,2R)-1-Benzyl-2-hydroxy-3-(3-trifluoromethoxy-benzylamino)-propyl]-5,N′-dimethyl-N′-pyridin-2-ylmethyl-isophthalamide] | 49
3 | CN(c1cc(C(=O)N[C@@H](Cc2ccccc2)[C@H](O)CNCc2cccc(OC(F)(F)F)c2)cc(C(=O)N2CCCC2c2cccs2)c1)S(C)(=O)=O (stereo partly drawn) [Example 45, N-[(1S,2R)-1-Benzyl-2-hydroxy-3-(3-trifluoromethoxy-benzylamino)-propyl]-3-(methanesulfonyl-methyl-amino)-5-(2-thiophen-2-yl-pyrrolidine-1-carbonyl)-benzamide] | 11
4 | Cc1cc(C(=O)N[C@@H](Cc2ccccc2)[C@H](O)CNCc2cccc(OC(F)(F)F)c2)cc(C(=O)N2CCCC2c2cccs2)c1 (stereo partly drawn) [Example 46, N-[(1S,2R)-1-Benzyl-2-hydroxy-3-(3-trifluoromethoxy-benzylamino)-propyl]-3-methyl-5-(2-thiophen-2-yl-pyrrolidine-1-carbonyl)-benzamide] | 1
5 | Cc1cc(C(=O)N[C@@H](Cc2ccccc2)[C@H](O)CNCc2cccc(OC(F)(F)F)c2)cc(C(=O)N(C)Cc2nc(C)cs2)c1 [Example 47, N-[(1S,2R)-1-Benzyl-2-hydroxy-3-(3-trifluoromethoxy-benzylamino)-propyl]-5,N′-dimethyl-N′-(4-methyl-thiazol-2-ylmethyl)-isophthalamide] | 117
6 | Cc1csc([C@H]2CCCN2C(=O)c2cc(C(=O)N[C@@H](Cc3ccccc3)[C@H](O)CNCc3cccc(C(F)(F)F)c3)cc(N(C)S(C)(=O)=O)c2)n1 [Example 48, N-[(1S,2R)-1-Benzyl-2-hydroxy-3-(3-trifluoromethyl-benzylamino)-propyl]-3-(methanesulfonyl-methyl-amino)-5-[(R)-2-(4-methyl-thiazol-2-yl)-pyrrolidine-1-carbonyl]-benzamide] | 81
7 | Cc1cc(C(=O)N[C@@H](Cc2ccccc2)[C@H](O)CNCc2cccc(C(F)(F)F)c2)cc(C(=O)N2CCC[C@@H]2c2nc(C)cs2)c1 [Example 49, N-[(1S,2R)-1-Benzyl-2-hydroxy-3-(3-trifluoromethyl-benzylamino)-propyl]-3-methyl-5-[(R)-2-(4-methyl-thiazol-2-yl)-pyrrolidine-1-carbonyl]-benzamide] | 119
8 | Cc1cc(C(=O)N[C@@H](Cc2ccccc2)[C@H](O)CNCc2cccc(C(F)(F)F)c2)cc(C(=O)N(C)Cc2ccccn2)c1 [Example 52, N-[(1S,2R)-1-Benzyl-2-hydroxy-3-(3-trifluoromethyl-benzylamino)-propyl]-5,N′-dimethyl-N′-pyridin-2-ylmethyl-isophthalamide] | 95
9 | CN(c1cc(C(=O)N[C@@H](Cc2ccccc2)[C@H](O)CNCc2cccc(C(F)(F)F)c2)cc(C(=O)N2CCCC2c2cccs2)c1)S(C)(=O)=O (stereo partly drawn) [Example 53, N-[(1S,2R)-1-Benzyl-2-hydroxy-3-(3-trifluoromethyl-benzylamino)-propyl]-3-(methanesulfonyl-methyl-amino)-5-(2-thiophen-2-yl-pyrrolidine-1-carbonyl)-benzamide] | 29
10 | Cc1cc(C(=O)N[C@@H](Cc2ccccc2)[C@H](O)CNCc2cccc(C(F)(F)F)c2)cc(C(=O)N2CCCC2c2cccs2)c1 (stereo partly drawn) [Example 54, N-[(1S,2R)-1-Benzyl-2-hydroxy-3-(3-trifluoromethyl-benzylamino)-propyl]-3-methyl-5-(2-thiophen-2-yl-pyrrolidine-1-carbonyl)-benzamide] | 1.9
11 | CC(=O)C1CC(c2ccc(F)cc2)N(C(=O)c2cccc(C(=O)N[C@@H](Cc3ccccc3)[C@H](O)CNCc3cccc(C(F)(F)F)c3)c2)C1 (stereo partly drawn) [Example 64, 3-[4-Acetyl-2-(4-fluoro-phenyl)-pyrrolidine-1-carbonyl]-N-[(1S,2R)-1-benzyl-2-hydroxy-3-(3-trifluoromethyl-benzylamino)-propyl]-benzamide] | 26

Further lines, results first:

Row | IC50 [nM] | Compound
12 | 0.4 | Cc1cc(C(=O)N[C@@H](Cc2ccccc2)[C@H](O)CNCc2cccc(C(F)(F)F)c2)cc(C(=O)N2CCCC2c2ccccc2)c1 (stereo partly drawn) [Example 51, N-[(1S,2R)-1-Benzyl-2-hydroxy-3-(3-trifluoromethyl-benzylamino)-propyl]-3-methyl-5-(2-phenyl-pyrrolidine-1-carbonyl)-benzamide]
13 | 42 | Cc1ccc(C2CCCN2C(=O)c2cccc(C(=O)N[C@@H](Cc3ccccc3)[C@H](O)CNCc3cccc(C(F)(F)F)c3)c2)cc1 (stereo partly drawn) [Example 55, N-[(1S,2R)-1-Benzyl-2-hydroxy-3-(3-trifluoromethyl-benzylamino)-propyl]-3-(2-p-tolyl-pyrrolidine-1-carbonyl)-benzamide]
14 | 115 | COc1ccc(C2CCCN2C(=O)c2cccc(C(=O)N[C@@H](Cc3ccccc3)[C@H](O)CNCc3cccc(C(F)(F)F)c3)c2)cc1 (stereo partly drawn) [Example 56, N-[(1S,2R)-1-Benzyl-2-hydroxy-3-(3-trifluoromethyl-benzylamino)-propyl]-3-[2-(4-methoxy-phenyl)-pyrrolidine-1-carbonyl]-benzamide]
15 | 619 | O=C(N[C@@H](Cc1ccccc1)[C@H](O)CNCc1cccc(C(F)(F)F)c1)c1cccc(C(=O)N2CCCC2c2cccc(Cl)c2)c1 (stereo partly drawn) [Example 57, N-[(1S,2R)-1-Benzyl-2-hydroxy-3-(3-trifluoromethyl-benzylamino)-propyl]-3-[2-(3-chloro-phenyl)-pyrrolidine-1-carbonyl]-benzamide]
16 | 89 | Cc1cccc(C2CCCN2C(=O)c2cccc(C(=O)N[C@@H](Cc3ccccc3)[C@H](O)CNCc3cccc(C(F)(F)F)c3)c2)c1 (stereo partly drawn) [Example 58, N-[(1S,2R)-1-Benzyl-2-hydroxy-3-(3-trifluoromethyl-benzylamino)-propyl]-3-(2-m-tolyl-pyrrolidine-1-carbonyl)-benzamide]
17 | 33 | O=C(N[C@@H](Cc1ccccc1)[C@H](O)CNCc1cccc(C(F)(F)F)c1)c1cccc(C(=O)N2CCCC2c2ccc(F)c(Cl)c2)c1 (stereo partly drawn) [Example 59, N-[(1S,2R)-1-Benzyl-2-hydroxy-3-(3-trifluoromethyl-benzylamino)-propyl]-3-[2-(3-chloro-4-fluoro-phenyl)-pyrrolidine-1-carbonyl]-benzamide]
18 | 267 | Cc1cc(C2CCCN2C(=O)c2cccc(C(=O)N[C@@H](Cc3ccccc3)[C@H](O)CNCc3cccc(C(F)(F)F)c3)c2)ccc1Cl (stereo partly drawn) [Example 60, N-[(1S,2R)-1-Benzyl-2-hydroxy-3-(3-trifluoromethyl-benzylamino)-propyl]-3-[2-(4-chloro-3-methyl-phenyl)-pyrrolidine-1-carbonyl]-benzamide]
19 | 764 | CCc1ccc(C2CCCN2C(=O)c2cccc(C(=O)N[C@@H](Cc3ccccc3)[C@H](O)CNCc3cccc(C(F)(F)F)c3)c2)cc1 (stereo partly drawn) [Example 62, N-[(1S,2R)-1-Benzyl-2-hydroxy-3-(3-trifluoromethyl-benzylamino)-propyl]-3-[2-(4-ethyl-phenyl)-pyrrolidine-1-carbonyl]-benzamide]
20 | 1 | CC1CCN(C(=O)c2cccc(C(=O)N[C@@H](Cc3ccccc3)[C@H](O)CNCc3cccc(C(F)(F)F)c3)c2)C1c1ccc(F)cc1 (stereo partly drawn) [Example 63, N-[(1S,2R)-1-Benzyl-2-hydroxy-3-(3-trifluoromethyl-benzylamino)-propyl]-3-[2-(4-fluoro-phenyl)-3-methyl-pyrrolidine-1-carbonyl]-benzamide]
21 | 51 | O=C(N[C@@H](Cc1ccccc1)[C@H](O)CNCc1cccc(C(F)(F)F)c1)c1cccc(C(=O)N2CCC[C@H]2Cc2ccccc2)c1 [Example 65, N-[(1S,2R)-1-Benzyl-2-hydroxy-3-(3-trifluoromethyl-benzylamino)-propyl]-3-((S)-2-benzyl-pyrrolidine-1-carbonyl)-benzamide]
